Consider 23 molecules from ChEMBL document CHEMBL3046861, “QSAR STUDIES ON ADENOSINE KINASE INHIBITORS” (Med Chem Res, 2004).

The test concerns the target Adenosine kinase (Homo sapiens) (UniProt P55263).

Sequence of Adenosine kinase (Homo sapiens) (P55263 2-362 limits assumed): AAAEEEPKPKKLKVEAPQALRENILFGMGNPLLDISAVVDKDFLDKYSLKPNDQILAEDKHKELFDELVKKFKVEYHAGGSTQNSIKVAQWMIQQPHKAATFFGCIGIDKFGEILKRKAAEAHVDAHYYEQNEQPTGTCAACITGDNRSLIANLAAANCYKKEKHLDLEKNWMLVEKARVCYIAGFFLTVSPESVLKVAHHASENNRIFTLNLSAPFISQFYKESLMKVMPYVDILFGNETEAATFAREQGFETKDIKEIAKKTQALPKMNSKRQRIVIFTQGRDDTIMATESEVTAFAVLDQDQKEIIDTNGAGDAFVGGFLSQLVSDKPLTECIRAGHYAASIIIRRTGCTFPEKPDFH
Description: Inhibition of adenosine kinase (unknown origin)

Turning to `C[C@H]1O[C@@H](n2cc(I)c3c(Cl)ncnc32)[C@H](O)[C@@H]1O`, the logIC50 was -2.52.
With `CSc1ncnc2c1c(I)cn2[C@@H]1O[C@H](C)[C@@H](O)[C@H]1O` the figure was -1.35.
With `CC[C@H]1O[C@@H](n2cc(I)c3c(N)ncnc32)[C@H](O)[C@@H]1O` the figure was -1.22.
For `C[C@H]1O[C@@H](n2cc(I)c3c(S)ncnc32)[C@H](O)[C@@H]1O`, the logIC50 stood at 0.813.
`[N-]=[N+]=NC[C@H]1O[C@@H](n2cc(I)c3c(Cl)ncnc32)[C@H](O)[C@@H]1O` gave a logIC50 of -2.05.
`NC[C@H]1O[C@@H](n2cc(I)c3c(Cl)ncnc32)[C@H](O)[C@@H]1O` returned a logIC50 of -4.
With `CSc1cn([C@@H]2O[C@H](C)[C@@H](O)[C@H]2O)c2ncnc(N)c12`, the logIC50 was determined as 0.13.
The molecule `[N-]=[N+]=NC[C@H]1O[C@@H](n2cc(Br)c3c(Cl)ncnc32)[C@H](O)[C@@H]1O` yielded a logIC50 of -1.
For `C[C@H]1O[C@@H](n2cc(C#N)c3c(N)ncnc32)[C@H](O)[C@@H]1O`, the logIC50 was -0.509.
Regarding `CNc1ncnc2c1c(I)cn2[C@@H]1O[C@H](C)[C@@H](O)[C@H]1O`, the logIC50 stood at 0.0792.
With `C=C[C@H]1O[C@@H](n2cc(I)c3c(N)ncnc32)[C@H](O)[C@@H]1O` the figure was -1; with `[N-]=[N+]=NC[C@H]1O[C@@H](n2cc(I)c3c(N)ncnc32)[C@H](O)[C@@H]1O`, -1.46.
In the case of `NC[C@H]1O[C@@H](n2cc(Br)c3c(N)ncnc32)[C@H](O)[C@@H]1O`, the logIC50 was -3.7.
With `C[C@H]1O[C@@H](n2cc(Br)c3c(Cl)ncnc32)[C@H](O)[C@@H]1O` the figure was -1.3; with `Nc1ncnc2c1c(Br)cn2[C@@H]1O[C@H](CO)[C@@H](O)[C@H]1O`, -0.921; with `OC[C@H]1O[C@@H](n2cc(I)c3c(Cl)ncnc32)[C@H](O)[C@@H]1O`, -1.62.
In the case of `Cc1cn([C@@H]2O[C@H](C)[C@@H](O)[C@H]2O)c2ncnc(Cl)c12`, the logIC50 was -0.272.
Regarding `Nc1ncnc2c1c(Cl)cn2[C@@H]1O[C@H](CO)[C@@H](O)[C@H]1O`, the logIC50 is -0.678.
In turn, `Nc1ncnc2c1c(Br)cn2[C@@H]1OC[C@@H](O)[C@H]1O` had a logIC50 of -0.301.
The same measure for `CSc1cn([C@@H]2O[C@H](C)[C@@H](O)[C@H]2O)c2ncnc(Cl)c12`: -1.16; for `COC[C@H]1O[C@@H](n2cc(I)c3c(N)ncnc32)[C@H](O)[C@@H]1O`: 0.0792.
For the molecule `[N-]=[N+]=NC[C@H]1O[C@@H](n2cc(Br)c3c(N)ncnc32)[C@H](O)[C@@H]1O`, the logIC50 was -1.2.
As to `NC[C@H]1O[C@@H](n2cc(I)c3c(N)ncnc32)[C@H](O)[C@@H]1O`, the logIC50 was -3.22.
